Experimental data as given in PubChem BioAssay (NCI).
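Each compound was tested at five concentrations against cells in 96-well plates for 48 hours. GI50 marks 50% less growth. TGI is the concentration that stops growth completely.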

Columns and labels:
Assay in all cases: NCI anticancer screen, dose series, 48 h
786-0 renal = tested on: 786-0 renal
A498 renal = tested on: A498 renal
A549 NSCLC = tested on: A549 NSCLC
ACHN renal = tested on: ACHN renal
CCRF-CEM leukemia = tested on: CCRF-CEM leukemia
COLO 205 colon = tested on: COLO 205 colon
DLD-1 colon = tested on: DLD-1 colon
DMS 114 small cell lung = tested on: DMS 114 small cell lung
DMS 273 small cell lung = tested on: DMS 273 small cell lung
EKVX NSCLC = tested on: EKVX NSCLC
HCC-2998 colon = tested on: HCC-2998 colon
HCT-116 colon = tested on: HCT-116 colon
HCT-15 colon = tested on: HCT-15 colon
HL-60(TB) leukemia = tested on: HL-60(TB) leukemia
HOP-18 NSCLC = tested on: HOP-18 NSCLC
HOP-62 NSCLC = tested on: HOP-62 NSCLC
HT29 colon = tested on: HT29 colon
IGROV1 ovarian = tested on: IGROV1 ovarian
K-562 leukemia = tested on: K-562 leukemia
KM12 colon = tested on: KM12 colon
KM20L2 colon = tested on: KM20L2 colon
LOX IMVI melanoma = tested on: LOX IMVI melanoma
LXFL 529 NSCLC = tested on: LXFL 529 NSCLC
M14 melanoma = tested on: M14 melanoma
M19-MEL melanoma = tested on: M19-MEL melanoma
MALME-3M melanoma = tested on: MALME-3M melanoma
MOLT-4 leukemia = tested on: MOLT-4 leukemia
NCI-H226 lung = tested on: NCI-H226 lung
NCI-H23 lung = tested on: NCI-H23 lung
NCI-H460 lung = tested on: NCI-H460 lung
NCI-H522 lung = tested on: NCI-H522 lung
OVCAR-3 ovarian = tested on: OVCAR-3 ovarian
OVCAR-4 ovarian = tested on: OVCAR-4 ovarian
OVCAR-5 ovarian = tested on: OVCAR-5 ovarian
OVCAR-8 ovarian = tested on: OVCAR-8 ovarian
RPMI-8226 leukemia = tested on: RPMI-8226 leukemia
RXF 393 renal = tested on: RXF 393 renal
SF-295 CNS = tested on: SF-295 CNS
SF-539 CNS = tested on: SF-539 CNS
SK-MEL-2 melanoma = tested on: SK-MEL-2 melanoma
SK-MEL-28 melanoma = tested on: SK-MEL-28 melanoma
SK-MEL-5 melanoma = tested on: SK-MEL-5 melanoma
SK-OV-3 ovarian = tested on: SK-OV-3 ovarian
SN12C renal = tested on: SN12C renal
SNB-19 CNS = tested on: SNB-19 CNS
SNB-75 CNS = tested on: SNB-75 CNS
SNB-78 CNS = tested on: SNB-78 CNS
SR leukemia = tested on: SR leukemia
SW-620 colon = tested on: SW-620 colon
TK-10 renal = tested on: TK-10 renal
U251 CNS = tested on: U251 CNS
UACC-257 melanoma = tested on: UACC-257 melanoma
UACC-62 melanoma = tested on: UACC-62 melanoma
UO-31 renal = tested on: UO-31 renal
XF 498 CNS = tested on: XF 498 CNS
CAKI-1 renal = tested on: CAKI-1 renal
HOP-92 NSCLC = tested on: HOP-92 NSCLC
SF-268 CNS = tested on: SF-268 CNS

CC[P+](C)(Cc1ccccc1)c1ccccc1 (configuration not stated)
TGI (786-0 renal): > 100000 nM | TGI (A498 renal): > 100000 nM | TGI (A549 NSCLC): > 100000 nM | TGI (ACHN renal): > 100000 nM | TGI (CCRF-CEM leukemia): > 100000 nM | TGI (COLO 205 colon): > 100000 nM | TGI (DLD-1 colon): > 100000 nM | TGI (DMS 114 small cell lung): > 100000 nM | TGI (DMS 273 small cell lung): > 100000 nM | TGI (EKVX NSCLC): > 100000 nM | TGI (HCC-2998 colon): > 100000 nM | TGI (HCT-116 colon): > 100000 nM | TGI (HCT-15 colon): > 100000 nM | TGI (HL-60(TB) leukemia): > 100000 nM | TGI (HOP-18 NSCLC): > 100000 nM | TGI (HOP-62 NSCLC): > 100000 nM | TGI (HT29 colon): > 100000 nM | TGI (IGROV1 ovarian): > 100000 nM | TGI (K-562 leukemia): > 100000 nM | TGI (KM12 colon): > 100000 nM | TGI (KM20L2 colon): > 100000 nM | TGI (LOX IMVI melanoma): > 100000 nM | TGI (LXFL 529 NSCLC): > 100000 nM | TGI (M14 melanoma): > 100000 nM | TGI (M19-MEL melanoma): > 100000 nM | TGI (MALME-3M melanoma): > 100000 nM | TGI (MOLT-4 leukemia): > 100000 nM | TGI (NCI-H226 lung): > 100000 nM | TGI (NCI-H23 lung): > 100000 nM | TGI (NCI-H460 lung): > 100000 nM | TGI (NCI-H522 lung): > 100000 nM | TGI (OVCAR-3 ovarian): > 100000 nM | TGI (OVCAR-4 ovarian): > 100000 nM | TGI (OVCAR-5 ovarian): > 100000 nM | TGI (OVCAR-8 ovarian): > 100000 nM | TGI (RPMI-8226 leukemia): > 100000 nM | TGI (RXF 393 renal): > 100000 nM | TGI (SF-295 CNS): > 100000 nM | TGI (SF-539 CNS): > 100000 nM | TGI (SK-MEL-2 melanoma): > 100000 nM | TGI (SK-MEL-28 melanoma): > 100000 nM | TGI (SK-MEL-5 melanoma): > 100000 nM | TGI (SK-OV-3 ovarian): > 100000 nM | TGI (SN12C renal): > 100000 nM | TGI (SNB-19 CNS): > 100000 nM | TGI (SNB-75 CNS): > 100000 nM | TGI (SNB-78 CNS): > 100000 nM | TGI (SR leukemia): > 100000 nM | TGI (SW-620 colon): > 100000 nM | TGI (TK-10 renal): > 100000 nM | TGI (U251 CNS): > 100000 nM | TGI (UACC-257 melanoma): > 100000 nM | TGI (UACC-62 melanoma): > 100000 nM | TGI (UO-31 renal): > 100000 nM | TGI (XF 498 CNS): > 100000 nM

CCC[CH2][Sn]([CH2]CCC)([O]C(=O)c1c(F)cccc1F)[O]C(=O)c1c(F)cccc1F
GI50 (786-0 renal): 768 nM | TGI (786-0 renal): 2000 nM | GI50 (A498 renal): 967 nM | TGI (A498 renal): 2160 nM | GI50 (A549 NSCLC): 3120 nM | TGI (A549 NSCLC): 11000 nM | GI50 (ACHN renal): 763 nM | TGI (ACHN renal): 2010 nM | GI50 (CAKI-1 renal): 380 nM | TGI (CAKI-1 renal): 1700 nM | GI50 (COLO 205 colon): 574 nM | TGI (COLO 205 colon): 1740 nM | GI50 (DLD-1 colon): 624 nM | TGI (DLD-1 colon): 1910 nM | GI50 (DMS 114 small cell lung): 214 nM | TGI (DMS 114 small cell lung): 602 nM | GI50 (DMS 273 small cell lung): 1070 nM | TGI (DMS 273 small cell lung): 2270 nM | GI50 (EKVX NSCLC): 1040 nM | TGI (EKVX NSCLC): 2220 nM | GI50 (HCC-2998 colon): 1180 nM | TGI (HCC-2998 colon): 2410 nM | GI50 (HCT-116 colon): 1020 nM | TGI (HCT-116 colon): 2250 nM | GI50 (HCT-15 colon): 1090 nM | TGI (HCT-15 colon): 2280 nM | GI50 (HL-60(TB) leukemia): 378 nM | TGI (HL-60(TB) leukemia): > 100000 nM | GI50 (HOP-18 NSCLC): 1890 nM | TGI (HOP-18 NSCLC): 3300 nM | GI50 (HOP-62 NSCLC): 2220 nM | TGI (HOP-62 NSCLC): 3690 nM | GI50 (HOP-92 NSCLC): 440 nM | TGI (HOP-92 NSCLC): 1810 nM | GI50 (HT29 colon): 1520 nM | TGI (HT29 colon): 2870 nM | GI50 (IGROV1 ovarian): 1390 nM | TGI (IGROV1 ovarian): 3000 nM | GI50 (K-562 leukemia): 355 nM | TGI (K-562 leukemia): > 100000 nM | GI50 (KM12 colon): 1510 nM | TGI (KM12 colon): 2830 nM | GI50 (KM20L2 colon): 1610 nM | TGI (KM20L2 colon): 2980 nM | GI50 (LOX IMVI melanoma): 353 nM | TGI (LOX IMVI melanoma): 1410 nM | GI50 (LXFL 529 NSCLC): 139 nM | TGI (LXFL 529 NSCLC): 318 nM | GI50 (M14 melanoma): 1080 nM | TGI (M14 melanoma): 2260 nM | GI50 (M19-MEL melanoma): 364 nM | TGI (M19-MEL melanoma): 1430 nM | GI50 (MALME-3M melanoma): 462 nM | TGI (MALME-3M melanoma): 1800 nM | GI50 (MOLT-4 leukemia): 239 nM | TGI (MOLT-4 leukemia): 818 nM | GI50 (NCI-H226 lung): 1890 nM | TGI (NCI-H226 lung): 3320 nM | GI50 (NCI-H23 lung): 439 nM | TGI (NCI-H23 lung): 1600 nM | GI50 (NCI-H460 lung): 1540 nM | TGI (NCI-H460 lung): 2900 nM | GI50 (NCI-H522 lung): 90.5 nM | TGI (NCI-H522 lung): 213 nM | GI50 (OVCAR-3 ovarian): 1140 nM | TGI (OVCAR-3 ovarian): 2360 nM | GI50 (OVCAR-4 ovarian): 1280 nM | TGI (OVCAR-4 ovarian): 2550 nM | GI50 (OVCAR-5 ovarian): 1340 nM | TGI (OVCAR-5 ovarian): 2610 nM | GI50 (OVCAR-8 ovarian): 1180 nM | TGI (OVCAR-8 ovarian): 2410 nM | GI50 (RXF 393 renal): 242 nM | TGI (RXF 393 renal): 844 nM | GI50 (SF-268 CNS): 565 nM | TGI (SF-268 CNS): 1830 nM | GI50 (SF-295 CNS): 1560 nM | TGI (SF-295 CNS): 2900 nM | GI50 (SF-539 CNS): 1020 nM | TGI (SF-539 CNS): 2200 nM | GI50 (SK-MEL-2 melanoma): 221 nM | TGI (SK-MEL-2 melanoma): 916 nM | GI50 (SK-MEL-28 melanoma): 599 nM | TGI (SK-MEL-28 melanoma): 1870 nM | GI50 (SK-MEL-5 melanoma): 1240 nM | TGI (SK-MEL-5 melanoma): 2520 nM | GI50 (SK-OV-3 ovarian): 1820 nM | TGI (SK-OV-3 ovarian): 3240 nM | GI50 (SN12C renal): 777 nM | TGI (SN12C renal): 2030 nM | GI50 (SNB-19 CNS): 1290 nM | TGI (SNB-19 CNS): 2560 nM | GI50 (SNB-75 CNS): 509 nM | TGI (SNB-75 CNS): 1820 nM | GI50 (SNB-78 CNS): 333 nM | TGI (SNB-78 CNS): 1470 nM | GI50 (SR leukemia): 318 nM | TGI (SR leukemia): 2140 nM | GI50 (SW-620 colon): 320 nM | TGI (SW-620 colon): 1230 nM | GI50 (TK-10 renal): 956 nM | TGI (TK-10 renal): 2130 nM | GI50 (U251 CNS): 443 nM | TGI (U251 CNS): 1600 nM | GI50 (UACC-257 melanoma): 671 nM | TGI (UACC-257 melanoma): 1990 nM | GI50 (UACC-62 melanoma): 884 nM | TGI (UACC-62 melanoma): 2100 nM | GI50 (UO-31 renal): 1310 nM | TGI (UO-31 renal): 2590 nM | GI50 (XF 498 CNS): 1310 nM | TGI (XF 498 CNS): 2590 nM
